The record followed here is PubChem BioAssay (NCI).

Some test systems named below: EKVX NSCLC; HS 578T breast; SF-539 CNS; M14 melanoma; MDA-MB-231 breast; SN12C renal; MOLT-4 leukemia; MDA-MB-435; HOP-62 NSCLC; UACC-257 melanoma.
What all share (test): NCI anticancer screen, dose series, 48 h

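Where inhibition never reached the appropriate level, the endpoint shown equals the highest concentration tested. Otherwise, values were interpolated linearly from a five-concentration, 48-hour dose response in 96-well plates. The concentration for full growth arrest is given as TGI.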 A value given as a limit tells only on which side of the number the result lay.

Consider `O=[N+]([O-])C(=C1NCCN1)/C(Cl)=C(\Cl)Br`, for which the TGI in the test on EKVX NSCLC is greater than 60.5 µM; in the test on HS 578T breast it was greater than 100 µM; with SF-539 CNS, greater than 100 µM; in the test on M14 melanoma it was greater than 100 µM; in the test on MDA-MB-231 breast, greater than 100 µM; in the test on SN12C renal it was greater than 100 µM. Also, the TGI with MOLT-4 leukemia is 65.7 µM; with MDA-MB-435, greater than 63.2 µM; in the test with HOP-62 NSCLC, greater than 100 µM; in the test with UACC-257 melanoma, greater than 87.3 µM.

For `Cc1cccc(/C=N/NC(=S)Nc2ccccc2)n1`, the TGI in the test with EKVX NSCLC is greater than 49.3 µM; in the test on HS 578T breast it was greater than 100 µM; with SF-539 CNS, 10.4 µM; in the test with M14 melanoma, 8.05 µM; in the test with MDA-MB-231 breast it was greater than 26.1 µM; in the test on SN12C renal, 12.3 µM. For the same compound, the TGI was greater than 100 µM in the test on MOLT-4 leukemia, greater than 100 µM with MDA-MB-435, 17.8 µM in the test with HOP-62 NSCLC and 8.1 µM with UACC-257 melanoma.

As to `O=C(CCC(=O)c1ccc(Cl)cc1)NO`, the TGI with EKVX NSCLC, with HS 578T breast, in the test with SF-539 CNS, in the test on M14 melanoma, with MDA-MB-231 breast and in the test on SN12C renal was greater than 100 µM in each case. Besides, the TGI in the test on MOLT-4 leukemia, in the test with MDA-MB-435, in the test on HOP-62 NSCLC and in the test on UACC-257 melanoma was greater than 100 µM each time.

Take `FC(F)(F)c1cc(Cl)cnc1N/N=C(/c1ccccc1)c1ccccn1`: the TGI is 4.97 µM with EKVX NSCLC; 5.98 µM in the test on HS 578T breast; 12.9 µM with SF-539 CNS; 5.04 µM in the test with M14 melanoma; 40.2 µM in the test with MDA-MB-231 breast; greater than 100 µM with SN12C renal. The TGI with MOLT-4 leukemia is 8.82 µM; in the test with MDA-MB-435, greater than 100 µM; with HOP-62 NSCLC, 19.7 µM; in the test with UACC-257 melanoma, 16.5 µM.

Regarding `C[C@@]12C[C@@H](c3ccccc3O1)N1CCCCSC1=N2`, the TGI with EKVX NSCLC, in the test on HS 578T breast, with SF-539 CNS, in the test with M14 melanoma, with MDA-MB-231 breast and with SN12C renal was greater than 100 µM in each case. Also, the TGI with MOLT-4 leukemia, with MDA-MB-435, in the test on HOP-62 NSCLC and in the test on UACC-257 melanoma was greater than 100 µM each time.

For `Cc1nc(C(N)=S)sc1/C(CC(=O)C(=O)Nc1cccc2ccc(O)cc12)=N\NC(=O)c1ccncc1`, the TGI with EKVX NSCLC, in the test with HS 578T breast, in the test with SF-539 CNS, in the test with M14 melanoma, with MDA-MB-231 breast and in the test on SN12C renal was greater than 100 µM throughout. Also, the TGI in the test on MOLT-4 leukemia was 74.3 µM; with MDA-MB-435 it was greater than 100 µM; in the test on HOP-62 NSCLC, greater than 100 µM; in the test on UACC-257 melanoma it was greater than 100 µM.

Turning to `C=C(Br)C(C)(Cl)CCC(Br)C(C)(C)Cl` (stereo not given), the TGI in the test on EKVX NSCLC, with HS 578T breast, in the test on SF-539 CNS, with M14 melanoma, in the test on MDA-MB-231 breast and with SN12C renal was greater than 100 µM each time. The TGI in the test on MOLT-4 leukemia was greater than 100 µM; with MDA-MB-435, 86.3 µM; in the test on HOP-62 NSCLC, greater than 100 µM; with UACC-257 melanoma, 85 µM.

`O=C(O)CN(CC(=O)O)C1CCCCC1N(CC(=O)O)CC(=O)NCCN=C=S` (stereo not given): the TGI with EKVX NSCLC, with HS 578T breast, in the test on SF-539 CNS, in the test with M14 melanoma, in the test with MDA-MB-231 breast and with SN12C renal was greater than 100 µM each time. For the same compound, the TGI in the test on MOLT-4 leukemia, with MDA-MB-435, with HOP-62 NSCLC and in the test on UACC-257 melanoma was greater than 100 µM in each case.

Take `CC(C)C1/C(=N/O)CC(c2ccccc2)N(N=O)C1c1ccccc1` (stereo not given): the TGI in the test on EKVX NSCLC is 73.5 µM; in the test with HS 578T breast, greater than 100 µM; with SF-539 CNS it was greater than 100 µM; in the test on M14 melanoma it was greater than 100 µM; in the test on MDA-MB-231 breast, greater than 100 µM; with SN12C renal it was greater than 100 µM. In addition, the TGI with MOLT-4 leukemia was 95.6 µM; with MDA-MB-435 it was 72.4 µM; with HOP-62 NSCLC it was greater than 100 µM; in the test on UACC-257 melanoma it was greater than 100 µM.

In the case of `Oc1cccc2c(Cl)ccnc12`, the TGI in the test with EKVX NSCLC is greater than 30.8 µM; with HS 578T breast, greater than 73.9 µM; with SF-539 CNS it was greater than 60.5 µM; with M14 melanoma it was 13.4 µM; in the test on MDA-MB-231 breast it was 97.5 µM; with SN12C renal, greater than 55.2 µM. Also, the TGI is 4.19 µM in the test with MOLT-4 leukemia, greater than 78.5 µM in the test on MDA-MB-435, greater than 100 µM in the test on HOP-62 NSCLC and 12.1 µM in the test on UACC-257 melanoma.

As to `COc1cc(/C=C/C(=N\NS(=O)(=O)c2ccc(C)cc2)c2sc(NNC(C)=O)nc2C)ccc1O`, the TGI in the test with EKVX NSCLC, in the test with HS 578T breast, in the test with SF-539 CNS, in the test with M14 melanoma, in the test with MDA-MB-231 breast and in the test with SN12C renal was greater than 100 µM in each case. Besides, the TGI in the test with MOLT-4 leukemia, in the test on MDA-MB-435, with HOP-62 NSCLC and in the test on UACC-257 melanoma was greater than 100 µM in each case.

Consider `Clc1cc(OC2C3CC4CC(C3)CC2C4)nc(Cl)n1` (stereo not given), for which the TGI in the test on EKVX NSCLC came to 29.6 µM; with HS 578T breast, 42.9 µM; with SF-539 CNS, 38.8 µM; with M14 melanoma, 32.5 µM; with MDA-MB-231 breast it was 27.5 µM; in the test on SN12C renal, 31 µM. Besides, the TGI in the test with MOLT-4 leukemia was 34.8 µM; in the test with MDA-MB-435, 37.9 µM; in the test with HOP-62 NSCLC, 67.1 µM; in the test with UACC-257 melanoma, 27.4 µM.

For `Nc1cccc2cc(Cl)cnc12`, the TGI with EKVX NSCLC, with HS 578T breast, in the test with SF-539 CNS, with M14 melanoma, in the test with MDA-MB-231 breast and with SN12C renal was greater than 100 µM throughout. Further, the TGI in the test with MOLT-4 leukemia, with MDA-MB-435, in the test with HOP-62 NSCLC and with UACC-257 melanoma was greater than 100 µM each time.

Turning to `O=c1[nH][nH]c(=O)n1Cc1ccccc1Cn1c(=O)[nH][nH]c1=O`, the TGI in the test on EKVX NSCLC, with HS 578T breast, in the test on SF-539 CNS, in the test with M14 melanoma, in the test on MDA-MB-231 breast and in the test on SN12C renal was greater than 100 µM in each case. In addition, the TGI in the test on MOLT-4 leukemia, in the test on MDA-MB-435, in the test with HOP-62 NSCLC and with UACC-257 melanoma was greater than 100 µM each time.

Take `C=C(C1=CC(=O)C(C)(C)O1)[C@@H]1CC=C([C@@H]2CC[C@H]3[C@@]2(C)CC[C@H]2C(C)(C)C(=O)[C@H](O)C[C@]32C)[C@H](O)O1`: the TGI in the test with EKVX NSCLC turned out to be 22.2 µM; in the test with HS 578T breast, 13.1 µM; with SF-539 CNS, 2.73 µM; in the test with M14 melanoma, 3.08 µM; in the test with MDA-MB-231 breast, 4.74 µM; with SN12C renal, 5.18 µM. The TGI with MOLT-4 leukemia is 3.96 µM; in the test on MDA-MB-435, 8.04 µM; in the test on HOP-62 NSCLC it was 8.33 µM; in the test with UACC-257 melanoma, 4.52 µM.

With `C=C1c2nc3ccccc3n2C=C(c2ccccc2)N1c1ccc([N+](=O)[O-])cc1`, the TGI is 24.8 µM in the test on EKVX NSCLC; 30.3 µM in the test with HS 578T breast; 3.04 µM in the test on SF-539 CNS; greater than 60.4 µM in the test with M14 melanoma; 14.2 µM in the test on MDA-MB-231 breast; greater than 95.2 µM with SN12C renal. Besides, the TGI in the test with MOLT-4 leukemia was greater than 100 µM; with MDA-MB-435, 32.6 µM; in the test on HOP-62 NSCLC, greater than 52.6 µM; in the test with UACC-257 melanoma, 63.4 µM.

Turning to `C(/c1ccco1)=c1/nc(-c2ccccc2)n2c1nc1ccccc12`, the TGI with EKVX NSCLC is 6.07 µM; in the test with HS 578T breast it was greater than 100 µM; in the test on SF-539 CNS it was greater than 100 µM; in the test with M14 melanoma it was greater than 100 µM; in the test with MDA-MB-231 breast, greater than 100 µM; in the test with SN12C renal, greater than 100 µM. For the same compound, the TGI was 33.5 µM in the test on MOLT-4 leukemia, greater than 100 µM in the test with MDA-MB-435, greater than 100 µM in the test with HOP-62 NSCLC and greater than 100 µM with UACC-257 melanoma.

Turning to `CCOC(=O)c1c2ccccc2n2c(N)c(C(N)=O)nnc12`, the TGI in the test with EKVX NSCLC is greater than 100 µM; with HS 578T breast, 35.5 µM; in the test on SF-539 CNS, 49.8 µM; in the test on M14 melanoma, greater than 100 µM; with MDA-MB-231 breast, 88.6 µM; in the test with SN12C renal it was greater than 100 µM. In addition, the TGI in the test with MOLT-4 leukemia was greater than 100 µM; with MDA-MB-435 it was greater than 100 µM; in the test with HOP-62 NSCLC, 69.1 µM; in the test on UACC-257 melanoma, greater than 100 µM.

Consider `COC(=O)c1cc2c(n1S(=O)(=O)c1ccc(C)cc1)C(=O)C(=O)c1[nH]cc(C(=O)OCc3ccccc3)c1-2`, for which the TGI was determined as 0.665 µM in the test with EKVX NSCLC; 5.8 µM in the test with HS 578T breast; 0.311 µM in the test with SF-539 CNS; 0.167 µM with M14 melanoma; 0.168 µM with MDA-MB-231 breast; 0.241 µM in the test on SN12C renal. In addition, the TGI in the test on MOLT-4 leukemia was determined as 0.944 µM; in the test on MDA-MB-435, 0.0301 µM; with HOP-62 NSCLC, 0.385 µM; in the test with UACC-257 melanoma, 0.112 µM.

As to `O=C1/C(=C/c2ccc(O)cc2)CC/C1=C\c1ccc(O)cc1`, the TGI in the test on EKVX NSCLC, with HS 578T breast, in the test on SF-539 CNS, in the test with M14 melanoma, in the test with MDA-MB-231 breast and with SN12C renal was greater than 100 µM each time. Further, the TGI in the test with MOLT-4 leukemia was greater than 52.8 µM; with MDA-MB-435, greater than 100 µM; with HOP-62 NSCLC, greater than 100 µM; in the test with UACC-257 melanoma, greater than 100 µM.

For the compound `COc1cc2c(cc1OC)C(c1ccccc1CCCCl)=NCC2`, the TGI with EKVX NSCLC, in the test with HS 578T breast, in the test on SF-539 CNS, in the test on M14 melanoma, with MDA-MB-231 breast and in the test on SN12C renal was greater than 100 µM in each case. Further, the TGI with MOLT-4 leukemia is greater than 100 µM; in the test with MDA-MB-435, 45.9 µM; with HOP-62 NSCLC, greater than 100 µM; with UACC-257 melanoma, greater than 100 µM.
